Reference: ChEMBL document CHEMBL1201862, “PubChem BioAssay data set” (2004)
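Growth conditions: 96-well plates. Treatment: test compound, 48 hours, 5 concentrations. Analysis: linear interpolation between bracketing concentrations; unreached endpoints set to highest concentration. GI50: concentration for 50% inhibition of growth.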 Calls of active or inactive are those of the source. Rule as the data show it: active = GI50 up to about 1.1 µM and inactive = higher.

How the values were obtained:
Assay in all cases: inhibition of tumour cell growth, NCI panel, 48 h
[1] = tested on: OVCAR-8
[2] = tested on: HCT-116
[3] = tested on: RPMI-8226
[4] = tested on: HCT-15
[5] = tested on: HCC 2998
[6] = tested on: HL-60
[7] = tested on: MOLT-4
[8] = tested on: KM12
[9] = tested on: OVCAR-5
[10] = tested on: UACC-257
[11] = tested on: SK-MEL-28
[12] = tested on: OVCAR-4
[13] = tested on: OVCAR-3
[14] = tested on: HOP-62
[15] = tested on: NCI-H226
[16] = tested on: SNB-19
[17] = tested on: NCI/ADR-RES
[18] = tested on: PC-3
[19] = tested on: SNB-75
[20] = tested on: RXF 393

Structure (SMILES) | GI50 [1] | GI50 [2] | GI50 [3] | GI50 [4] [µM] | GI50 [5] | GI50 [6] | GI50 [7] | GI50 [8] | GI50 [9] | GI50 [10] | GI50 [11] | GI50 [12] | GI50 [13] | GI50 [14] | GI50 [15] | GI50 [16] | GI50 [17] | GI50 [18] | GI50 [19] | GI50 [20]
CCOC(=O)[C@@H](NC(=O)OC(C)(C)C)[C@@H](O)C(=O)OCC | > 100 µM (inactive) | > 100 µM (inactive) | > 100 µM (inactive) | > 100 | 62.8 µM (inactive) | > 100 µM (inactive) | > 100 µM (inactive) | > 100 µM (inactive) | > 100 µM (inactive) | > 100 µM (inactive) | > 100 µM (inactive) | > 100 µM (inactive) | > 100 µM (inactive) | > 100 µM (inactive) | > 100 µM (inactive) | > 100 µM (inactive) | > 100 µM (inactive) | > 100 µM (inactive) | > 100 µM (inactive) | > 100 µM (inactive)
CCOC(=O)[C@@H]1[C@@H]2NC(=O)N[C@@]1(C)Oc1ccccc12 | > 100 µM (inactive) | > 100 µM (inactive) | > 100 µM (inactive) | > 100 | > 100 µM (inactive) | > 100 µM (inactive) | > 100 µM (inactive) | > 100 µM (inactive) | > 100 µM (inactive) | > 100 µM (inactive) | > 100 µM (inactive) | > 100 µM (inactive) | > 100 µM (inactive) | > 100 µM (inactive) | > 100 µM (inactive) | > 100 µM (inactive) | > 100 µM (inactive) | > 100 µM (inactive) | > 100 µM (inactive) | > 100 µM (inactive)
[C-]#[N+]C1(C(=O)OCC)CC1 | > 100 µM (inactive) | > 100 µM (inactive) | > 100 µM (inactive) | > 100 | > 100 µM (inactive) | > 100 µM (inactive) | > 100 µM (inactive) | – | > 100 µM (inactive) | > 100 µM (inactive) | > 100 µM (inactive) | > 100 µM (inactive) | > 100 µM (inactive) | > 100 µM (inactive) | > 100 µM (inactive) | > 100 µM (inactive) | > 100 µM (inactive) | > 100 µM (inactive) | > 100 µM (inactive) | > 100 µM (inactive)
BC(=O)NC(CC(C)C)C(=O)NCC(=O)NC1c2ccsc2C(=O)C1O.CN(C)C (configuration not stated) | > 100 µM (inactive) | > 100 µM (inactive) | > 100 µM (inactive) | > 100 | > 100 µM (inactive) | > 100 µM (inactive) | > 100 µM (inactive) | > 100 µM (inactive) | > 100 µM (inactive) | > 100 µM (inactive) | > 100 µM (inactive) | > 100 µM (inactive) | > 100 µM (inactive) | > 100 µM (inactive) | 95.5 µM (inactive) | > 100 µM (inactive) | > 100 µM (inactive) | > 100 µM (inactive) | > 100 µM (inactive) | > 100 µM (inactive)
NCCSCC(N)C(=O)O (configuration not stated) | > 497 µM (inactive) | 39.7 µM (inactive) | 47.1 µM (inactive) | > 87.5 | > 497 µM (inactive) | > 497 µM (inactive) | > 497 µM (inactive) | 38 µM (inactive) | > 497 µM (inactive) | > 497 µM (inactive) | > 497 µM (inactive) | > 497 µM (inactive) | > 64.9 µM (inactive) | > 497 µM (inactive) | > 497 µM (inactive) | > 497 µM (inactive) | > 100 µM (inactive) | > 100 µM (inactive) | > 40.4 µM (inactive) | > 497 µM (inactive)
COc1ccccc1/C=C/C1=NN(c2cccc(S(=O)(=O)O)c2)C2(C1)C(Cl)C(=O)N2c1nc2ccccc2s1 (configuration not stated) | > 51.4 µM (inactive) | 61.9 µM (inactive) | 19 µM (inactive) | 57.4 | > 91 µM (inactive) | 22.1 µM (inactive) | 34 µM (inactive) | 51.6 µM (inactive) | > 100 µM (inactive) | 56.8 µM (inactive) | > 100 µM (inactive) | 42.2 µM (inactive) | 31.5 µM (inactive) | > 100 µM (inactive) | 28 µM (inactive) | > 84.7 µM (inactive) | > 100 µM (inactive) | 76.6 µM (inactive) | 42.8 µM (inactive) | 31.3 µM (inactive)
COc1nc2c(c(=O)n1C)N=C(c1ccccc1)[C@H](C(CC(=O)c1ccccc1)c1ccccc1)C(c1ccccc1)N2 (some centres not stated) | 54.5 µM (inactive) | 88.1 µM (inactive) | 36.7 µM (inactive) | – | 83.8 µM (inactive) | 38.4 µM (inactive) | 19.5 µM (inactive) | 30.8 µM (inactive) | > 100 µM (inactive) | > 100 µM (inactive) | > 100 µM (inactive) | 20.1 µM (inactive) | > 100 µM (inactive) | > 100 µM (inactive) | 69.2 µM (inactive) | > 100 µM (inactive) | 39.6 µM (inactive) | 42 µM (inactive) | 10 µM (inactive) | 28.5 µM (inactive)
O=C(O)CCC1(C(=O)O)CCC(=O)c2ccccc21 (configuration not stated) | > 100 µM (inactive) | > 100 µM (inactive) | > 100 µM (inactive) | > 100 | > 100 µM (inactive) | > 100 µM (inactive) | – | > 100 µM (inactive) | > 100 µM (inactive) | > 100 µM (inactive) | > 100 µM (inactive) | > 100 µM (inactive) | > 100 µM (inactive) | > 100 µM (inactive) | > 100 µM (inactive) | > 100 µM (inactive) | > 100 µM (inactive) | > 100 µM (inactive) | > 100 µM (inactive) | > 100 µM (inactive)
COc1cc2c(cc1Cl)[n+]([O-])c(C#N)c(N1CCN(c3ccc([N+](=O)[O-])cc3)CC1)[n+]2[O-] | 7.28 µM (inactive) | 24 µM (inactive) | 0.631 µM (active) | 11.1 | 19.1 µM (inactive) | 51.2 µM (inactive) | 5 µM (inactive) | 21.9 µM (inactive) | 67.8 µM (inactive) | 14.8 µM (inactive) | 34.8 µM (inactive) | 30 µM (inactive) | 52.6 µM (inactive) | 8.34 µM (inactive) | > 100 µM (inactive) | 32 µM (inactive) | 15.5 µM (inactive) | 17.9 µM (inactive) | 17.4 µM (inactive) | 27 µM (inactive)
CCC1(O)C(=O)OCc2c1cc1n(c2=O)Cc2cc3c(N)cccc3nc2-1 (configuration not stated) [RS-9-Aminocamptothecin] | 0.027 µM (active) | 0.0171 µM (active) | 0.0416 µM (active) | 0.267 | 0.177 µM (active) | < 0.0128 µM (active) | < 0.01 µM (active) | 0.24 µM (active) | 0.19 µM (active) | 0.121 µM (active) | 0.188 µM (active) | 0.345 µM (active) | 0.277 µM (active) | < 0.0119 µM (active) | < 0.01 µM (active) | < 0.0138 µM (active) | 0.0118 µM (active) | 0.115 µM (active) | 0.013 µM (active) | 0.0447 µM (active)
C=C1C(=O)O[C@H]2[C@@H](O)[C@H](C)CCC[C@]3(C)O[C@H]3CC[C@@]3(C)O[C@@H]3C[C@@H]12 | 6.25 µM (inactive) | 1.75 µM (inactive) | 2.15 µM (inactive) | 1.29 | 4.93 µM (inactive) | 0.897 µM (active) | 1.55 µM (inactive) | 7.94 µM (inactive) | 6.22 µM (inactive) | – | 2.83 µM (inactive) | 2.66 µM (inactive) | 4.31 µM (inactive) | 7.4 µM (inactive) | 7.43 µM (inactive) | 11.9 µM (inactive) | 7.73 µM (inactive) | 7.43 µM (inactive) | 6.9 µM (inactive) | 1.67 µM (inactive)
Cc1ccc(C(O)c2cnc(C)n2Cc2ccccc2)cc1 (configuration not stated) | > 100 µM (inactive) | > 100 µM (inactive) | 46 µM (inactive) | > 100 | > 100 µM (inactive) | 6.43 µM (inactive) | – | > 100 µM (inactive) | > 100 µM (inactive) | 67.1 µM (inactive) | > 100 µM (inactive) | > 100 µM (inactive) | > 100 µM (inactive) | > 100 µM (inactive) | > 100 µM (inactive) | > 100 µM (inactive) | 85.3 µM (inactive) | > 100 µM (inactive) | > 100 µM (inactive) | > 100 µM (inactive)
CC(C)CC(=O)NC(NC(C)C)(C(F)(F)F)C(F)(F)F | > 100 µM (inactive) | > 100 µM (inactive) | > 100 µM (inactive) | > 100 | > 100 µM (inactive) | 60.5 µM (inactive) | > 100 µM (inactive) | > 100 µM (inactive) | – | > 100 µM (inactive) | > 100 µM (inactive) | > 100 µM (inactive) | – | > 100 µM (inactive) | > 100 µM (inactive) | > 100 µM (inactive) | > 100 µM (inactive) | > 100 µM (inactive) | > 100 µM (inactive) | > 100 µM (inactive)
O=C(CCCCCNC(=O)c1ccc(Cl)cc1)NO | 3.41 µM (inactive) | 2.56 µM (inactive) | 3.09 µM (inactive) | 15.3 | 4.5 µM (inactive) | 3.77 µM (inactive) | 1.88 µM (inactive) | 6.59 µM (inactive) | 1.64 µM (inactive) | 2.72 µM (inactive) | 5.32 µM (inactive) | 20.6 µM (inactive) | 2.55 µM (inactive) | – | 15.8 µM (inactive) | 15 µM (inactive) | 1.15 µM (inactive) | 2.86 µM (inactive) | 1.49 µM (inactive) | 3.66 µM (inactive)
